The values below come from patent US12105070B2, “LC-MS/MS method for measurement of Aloesin in rat plasma” (HAINAN MEDICAL UNIVERSITY, priority 2020, dated 2024).

Series [1] is described as follows: Stability of aloesin in plasma samples (LC-MS/MS quality control samples). It is filed as in vitro ADME, rat. As for the experimental part: Prepare 3 concentrations of aloesin quality control samples (500 ng·mL^−1, 50 ng·mL^−1, 3 ng·mL^−1) with blank plasma, and examine the stability under the following conditions.
(1) After the sample is processed, it is placed in the autosampler for 8 hours, and then the sample is injected for analysis;
(2) The sample is processed after 3 freeze-thaw cycles, and the sample is injected for analysis;
(3) The sample is placed at room temperature for 4 hours and then comes out, and the sample is injected for analysis;
(4) The sample is processed after the sample is stored at −20° C. for 15 days, and then the sample is injected for analysis.
The stability inspection is qualified.

The conditions of series [2]: toxicological studies, no details given; cited from earlier work.

Consider `CC(=O)Cc1cc(=O)c2c(C)cc(O)c([C@@H]3O[C@H](CO)[C@@H](O)[C@H](O)[C@H]3O)c2o1` [aloesin], for which the Accuracy in series [1] (3 ng·ml^-1 in plasma, 3 freeze-thaw cycles) came to 109.60%; in series [1] (3 ng·ml^-1 in plasma, processed sample in autosampler 8 h), 109.20%; in series [1] (3 ng·ml^-1 in plasma, room temperature for 4 hours), 106.18%; in series [1] (3 ng·ml^-1 in plasma, stored at -20° C. for 15 days) it was 108.00%; in series [1] (50 ng·ml^-1 in plasma, 3 freeze-thaw cycles) it was 109.40%; in series [1] (50 ng·ml^-1 in plasma, processed sample in autosampler 8 h) it was 108.20%. In addition, the Accuracy in series [1] (50 ng·ml^-1 in plasma, room temperature for 4 hours) is 105.20%; in series [1] (50 ng·ml^-1 in plasma, stored at -20° C. for 15 days), 100.14%; in series [1] (500 ng·ml^-1 in plasma, 3 freeze-thaw cycles), 105.20%; in series [1] (500 ng·ml^-1 in plasma, processed sample in autosampler 8 h) it was 102.60%; in series [1] (500 ng·ml^-1 in plasma, room temperature for 4 hours) it was 101.80%; in series [1] (500 ng·ml^-1 in plasma, stored at -20° C. for 15 days), 94.66%. In addition, the toxic side effects entry in series [2] is given as “basically no toxic side effects”.
